# How the values were obtained:
# Conditions in all cases: Oryctolagus cuniculus
# [1] = Antiplatelet activity against washed rabbit platelet assessed as collagen-induced platelet aggregation at 100 ug/mL pre-incubated 3 mins before collagen challenge by turbidimetric method
# [2] = Antiplatelet activity against washed rabbit platelet assessed as thrombin-induced platelet aggregation at 100 ug/mL pre-incubated 3 mins before thrombin challenge by turbidimetric method
# [3] = Antiplatelet activity against washed rabbit platelet assessed as arachidonic acid-induced platelet aggregation at 100 ug/mL pre-incubated 3 mins before arachidonic acid challenge by turbidimetric method
# [4] = Antiplatelet activity against washed rabbit platelet assessed as platelet activating factor-induced platelet aggregation at 100 ug/mL pre-incubated 3 mins before PAF challenge by turbidimetric method
# [5] = Antiplatelet activity against washed rabbit platelet assessed as arachidonic acid-induced platelet aggregation at 50 ug/mL preincubated 3 mins before arachidonic acid challenge by turbidimetric method
# [6] = Antiplatelet activity against washed rabbit platelet assessed as thrombin-induced platelet aggregation at 50 ug/mL preincubated 3 mins before thrombin challenge by turbidimetric method
# [7] = Antiplatelet activity against washed rabbit platelet assessed as arachidonic acid-induced platelet aggregation at 20 ug/mL pre-incubated 3 mins before arachidonic acid challenge by turbidimetric method
# [8] = Antiplatelet activity against washed rabbit platelet assessed as collagen-induced platelet aggregation at 50 ug/mL pre-incubated 3 mins before collagen challenge by turbidimetric method
# [9] = Antiplatelet activity against washed rabbit platelet assessed as platelet activating factor-induced platelet aggregation at 50 ug/mL preincubated 3 mins before PAF challenge by turbidimetric method
# [10] = Antiplatelet activity against washed rabbit platelet assessed as arachidonic acid-induced platelet aggregation at 5 ug/mL pre-incubated 3 mins before arachidonic acid challenge by turbidimetric method
# [11] = Antiplatelet activity against washed rabbit platelet assessed as collagen-induced platelet aggregation at 20 ug/mL pre-incubated 3 mins before collagen challenge by turbidimetric method
# [12] = Antiplatelet activity against washed rabbit platelet assessed as arachidonic acid-induced platelet aggregation at 10 ug/mL pre-incubated 3 mins before arachidonic acid challenge by turbidimetric method
# [13] = Antiplatelet activity against washed rabbit platelet assessed as platelet activating factor-induced platelet aggregation at 20 ug/mL pre-incubated 3 mins before PAF challenge by turbidimetric method
# [14] = Antiplatelet activity against washed rabbit platelet assessed as thrombin-induced platelet aggregation at 20 ug/mL pre-incubated 3 mins before thrombin challenge by turbidimetric method
Structure (SMILES),Aggregation % at 100 µg/mL [1],Aggregation % at 100 µg/mL [2],Aggregation % at 100 µg/mL [3],Aggregation % at 100 µg/mL [4],Aggregation % at 50 µg/mL [5],aggregation at 50 µg/mL [6],Aggregation % at 20 µg/mL [7],Aggregation % at 50 µg/mL [8],Aggregation % at 50 µg/mL [9],Aggregation % at 5 µg/mL [10],Aggregation % at 20 µg/mL [11],Aggregation % at 10 µg/mL [12],Aggregation % at 20 µg/mL [13],Aggregation % at 20 µg/mL [14]
COc1ccc2c(OC)c3c(nc2c1OC)O[C@H](C(C)(C)O)C3,84.4%,86.5%,81.7%,89.8%,–,–,–,–,–,–,–,–,–,–
COc1ccc2c(OC)c3c(nc2c1OC)O[C@@H](C(C)(C)O)[C@H]3O,79%,85.4%,78.3%,89.4%,–,–,–,–,–,–,–,–,–,–
CC(=O)Oc1ccccc1C(=O)O [ASPIRIN],–,–,–,–,7.8%,94.2%,11.7%,88.4%,91.2%,–,–,–,–,–
COc1cc(O)c2c(=O)c(OC)c(-c3ccc(OC)c(O)c3)oc2c1 [AYANIN],43.1%,85.4%,13.3%,88.3%,38%,–,66.3%,66.1%,–,81.9%,80.3%,77.2%,–,–
COc1c2ccc(O)cc2nc2occc12 [CONFUSAMELINE],11.4%,–,0%,78.6%,–,–,–,–,–,–,–,–,–,–
COc1cc2nc3occc3c(OC)c2cc1OC [KOKUSAGININE],15.2%,–,0%,70.7%,0%,–,–,80.6%,88.9%,–,–,–,–,–
CCCCCCCC/C=C\CCCCCCCC(=O)OC [METHYL OLEATE],–,–,–,–,–,–,81.7%,–,–,–,84.4%,–,89.4%,86.7%
CC(C)=CCc1c(O)ccc2ccc(=O)oc12 [OSTHENOL],13.7%,90.4%,23.2%,89.8%,84.8%,–,–,79.2%,–,–,87%,–,–,–
COc1ccc2ccc(=O)oc2c1CC=C(C)C [OSTHOLE],7.4%,86.6%,0%,0%,52.6%,–,84.5%,7%,88.6%,–,88.1%,–,90%,–
COCc1c(OC)c2ccc(OC)cc2[nH]c1=O [SEMECARPIFOLINE],82.7%,85.8%,81%,88.8%,–,–,–,–,–,–,–,–,–,–
COc1cc(C(=O)O)cc(OC)c1O [SYRINGIC ACID],85.1%,88.3%,83.2%,89.6%,–,–,–,–,–,–,–,–,–,–
